Results on one compound are retold here after US8211695B2, “Isolated transgenic mammalian neural cell for detection of a sample containing a chemical substance damage to neurological system or selection of drugs for treating neurodegenerative disorders” (Taipei Medical University, priority 2010, dated 2012).

This test has as its system AhR. Nature of the test: DRE driven luciferase activity of C6 DRE stable clone (pGL-2 pro/DRE) and pGL2 control cell line. As to conditions: C6 glioma cells, pGL-2 pro/DRE stable clone versus pGL2 control cell line; FIG. 1. It counts as cell-based, rat. The source says: The plasmid pGL-2 pro/DRE was constructed by inserting a synthesized DNA fragment containing three rat dioxin responsive element (DRE, […] CGCAACTCGCTAGCATA; SEQ ID NO:1) between the KpnI and NheI sites of pGL2-promoter (pGL2 pro). To generate pGL-2 pro/DRE stable clones, plasmids pGL-2 pro/DRE and pCMV-Tag 2B were co-transfected into C6 glioma cells by Lipofectamine™ 2000. Meanwhile, plasmid pGL-2 pro and pCMV-Tag 2B were followed the same conditions to generate pGL-2 control cell line. These transfected cells were selected by Geneticin® (G418, 500 μg/ml) for 18 days. The stable clones of C6 cells were obtained and maintained in DMEM with 10% FBS and G418. To examine the stably insertion of pGL-2 pro/DRE or pGL-2 pro, the G418 resistant cells were harvested to extracted genomic DNA for polymerase chain reaction (PCR). The inserted DNA was confirmed to amplify 392 bps for pGL-2 pro/DRE stable insertion or 324 bps for pGL-2 pro (pGL-2) stable insertion, respectively. Finally, the metabolic degradable AhR agonist, 3-methylcholanthere (3MC), was used to examine the luciferase activity of pGL-2 pro/DRE C6 stable clones.
The metabolic degradable AhR agonist, 3-methylcholanthere (3MC), was used to examine the DRE driven luciferase activity of C6 DRE stable clone and pGL2 control cell line.

Turning to `Cc1ccc2cc3c(ccc4ccccc43)c3c2c1CC3` [3MC, 3-methylcholanthere], the “DRE driven luciferase activity (luminescence)” value is on record as “increase luminescence in a dose response only in DRE stable clone”.
